From ChEMBL document CHEMBL3046690, “Identification of an ISR-related metabolite produced by rhizobacterium Klebsiella oxytoca C1036 active against soft-rot disease pathogen in tobacco” (Pest Manag Sci, 2009)
The source made the active and inactive calls. The rule behind the calls is not given here.

How the values were obtained:
[1] = test system: Nicotiana tabacum; assay: Induction of systemic resistance (ISR) activity in Nicotiana tabacum (tobacco) seedlings against pectobacterium carotovorum subsp. carotovorum SCC1 assessed as decrease in disease symptoms on leaves at 12 mM applied to roots prior to leaf infection with SCC1 measured at 3 days after pathogen challenge; assay type: functional, organism-based
[2] = test system: Nicotiana tabacum; assay: Induction of systemic resistance (ISR) activity in Nicotiana tabacum (tobacco) seedlings against pectobacterium carotovorum subsp. carotovorum SCC1 assessed as decrease in disease symptoms on leaves applied to roots prior to leaf infection with SCC1 measured at 3 days after pathogen challenge; assay type: functional, organism-based

SMILES	Activity [1]	Activity [2]
CCCCOC(=O)C1CCC(=O)N1 (configuration not stated)	Active	
CCCCOC(=O)[C@@H]1CCC(=O)N1		Active
